Test results: patent US12139492B2 (Endotarget Inc., priority 2021, dated 2024)

Experiments:
Type in all cases: cell-based
[1] = target: BTK (Homo sapiens, UniProt Q06187); test: BTK degradation, DC50 and Dmax of Table 1 (cell line not given); design: endogenous in cells; conditions: for DC50: concentration giving 50% reduction of BTK expression level
[2] = system: JeKo-1 cells; test: Antiproliferative effect, MTS cell viability assay, JeKo-1 cells; conditions: Homo sapiens; JeKo-1 mantle cell lymphoma cells; read-out: IC50 (anti-proliferation) JeKO-1 cells
How it was run: (§1)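 Absorbance at 490 nm of formazan, formed by metabolically active cells from MTS tetrazolium, served as the viability measure after a 72 h treatment across a 0.001–10 μM concentration series plus untreated control.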

[3] = system: Mino cells; test: Antiproliferative effect, MTS cell viability assay, Mino cells; conditions: Homo sapiens, MINO, Mino mantle cell lymphoma cells; read-out: IC50 (anti-proliferation) Mino cells
How it was run: as §1

Sequence of BTK (Q06187 whole entry): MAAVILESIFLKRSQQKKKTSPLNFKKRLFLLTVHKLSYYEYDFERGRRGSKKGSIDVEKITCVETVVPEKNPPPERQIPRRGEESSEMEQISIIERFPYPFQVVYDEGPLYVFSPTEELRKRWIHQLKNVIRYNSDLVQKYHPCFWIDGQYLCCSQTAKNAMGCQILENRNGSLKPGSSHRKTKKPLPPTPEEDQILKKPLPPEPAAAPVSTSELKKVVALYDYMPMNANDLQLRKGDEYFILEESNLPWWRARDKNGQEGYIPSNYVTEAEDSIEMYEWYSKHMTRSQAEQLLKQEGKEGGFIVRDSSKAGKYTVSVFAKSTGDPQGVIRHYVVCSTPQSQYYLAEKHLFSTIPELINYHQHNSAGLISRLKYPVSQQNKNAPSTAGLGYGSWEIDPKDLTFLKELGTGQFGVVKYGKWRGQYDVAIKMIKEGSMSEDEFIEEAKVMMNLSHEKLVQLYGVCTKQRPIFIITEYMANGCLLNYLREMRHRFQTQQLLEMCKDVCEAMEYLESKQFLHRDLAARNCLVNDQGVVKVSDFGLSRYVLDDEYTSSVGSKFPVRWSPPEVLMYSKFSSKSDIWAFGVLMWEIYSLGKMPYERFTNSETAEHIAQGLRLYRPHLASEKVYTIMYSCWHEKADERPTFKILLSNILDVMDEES

| SMILES | Dmax [1] [%] | DC50 [1] [nM] | IC50 [2] [nM] | IC50 [3] [nM] |
| --- | --- | --- | --- | --- |
| Nc1ncnc2c1c(-c1ccc(Oc3ccccc3)cc1)nn2[C@@H]1CCCN(C(=O)N2CCC(CC3CCN(c4ccc5c(c4)CN(C4CCC(=O)NC4=O)C5=O)CC3)CC2)C1 (stereo partly drawn) [Compound 60, 3-(5-(4-((1-((R)-3-(4-amino-3-(4-phenoxyphenyl)-1H-pyrazolo[3,4-d]pyrimidin-1-yl)piperidine-1-carbonyl)piperidin-4-yl)methyl)piperidin-1-yl)-1-oxoisoindolin-2-yl)piperidine-2,6-dione] | > 90 | < 10 | < 1000 | < 1000 |
| Nc1ncnc2c1c(-c1ccc(Oc3ccccc3)cc1)nn2C1CCN(C(=O)N2CCC(CCCN3CCC(c4ccc5c(c4)C(=O)N(C4CCC(=O)NC4=O)C5=O)CC3)CC2)CC1 (stereo not shown) [Compound 127, 5-(1-(3-(1-(4-(4-amino-3-(4-phenoxyphenyl)-1H-pyrazolo[3,4-d]pyrimidin-1-yl)piperidine-1-carbonyl)piperidin-4-yl)propyl)piperidin-4-yl)-2-(2,6-dioxopiperidin-3-yl)isoindoline-1,3-dione] | > 90 | > 50 | > 10000 | 1000 to 10000 |
| Nc1ncnc2c1c(-c1ccc(Oc3ccccc3)cc1)nn2[C@@H]1CCCN(C(=O)N2CCC(c3ccc4c(c3)CN(C3CCC(=O)NC3=O)C4=O)CC2)C1 (stereo partly drawn) [Compound 48, 3-(5-(1-((R)-3-(4-amino-3-(4-phenoxyphenyl)-1H-pyrazolo[3,4-d]pyrimidin-1-yl)piperidine-1-carbonyl)piperidin-4-yl)-1-oxoisoindolin-2-yl)piperidine-2,6-dione] | > 50 | > 50 | > 10000 | > 10000 |
| Nc1ncnc2c1c(-c1ccc(Oc3ccccc3)cc1)nn2[C@@H]1CCCN(C2CCN(C(=O)N3CCC(CCN4CCC(c5ccc6c(c5)CN(C5CCC(=O)NC5=O)C6=O)CC4)CC3)CC2)C1 (stereo partly drawn) [Compound 184, 3-(5-(1-(2-(1-((R)-3-(4-amino-3-(4-phenoxyphenyl)-1H-pyrazolo[3,4-d]pyrimidin-1-yl)-[1,4′-bipiperidine]-1′-carbonyl)piperidin-4-yl)ethyl)piperidin-4-yl)-1-oxoisoindolin-2-yl)piperidine-2,6-dione] | > 90 | 10 to 50 | 1000 to 10000 | 1000 to 10000 |
| Nc1ncnc2c1c(-c1ccc(Oc3ccccc3)cc1)nn2[C@@H]1CCCN(C2CCN(C(=O)N3CCC(CCCN4CCN(c5ccc6c(c5)C(=O)N(C5CCC(=O)NC5=O)C6=O)CC4)CC3)CC2)C1 (stereo partly drawn) [Compound 193, 5-(4-(3-(1-((R)-3-(4-amino-3-(4-phenoxyphenyl)-1H-pyrazolo[3,4-d]pyrimidin-1-yl)-[1,4′-bipiperidine]-1′-carbonyl)piperidin-4-yl)propyl)piperazin-1-yl)-2-(2,6-dioxopiperidin-3-yl)isoindoline-1,3-dione] | > 50 | 10 to 50 | > 10000 | 1000 to 10000 |
| Nc1ncnc2c1c(-c1ccc(Oc3ccccc3)cc1)nn2[C@@H]1CCCN(C(=O)N2CCN(CCN3CCN(c4ccc5c(c4)CN(C4CCC(=O)NC4=O)C5=O)CC3)CC2)C1 (stereo partly drawn) [Compound 66, 3-(5-(4-(2-(4-((R)-3-(4-amino-3-(4-phenoxyphenyl)-1H-pyrazolo[3,4-d]pyrimidin-1-yl)piperidine-1-carbonyl)piperazin-1-yl)ethyl)piperazin-1-yl)-1-oxoisoindolin-2-yl)piperidine-2,6-dione] | > 90 | < 10 | < 1000 | 1000 to 10000 |
| Nc1ncnc2c1c(-c1ccc(Oc3ccccc3)cc1)nn2[C@@H]1CCCN(CC2CCN(CCN3CCN(c4ccc5c(c4)C(=O)N(C4CCC(=O)NC4=O)C5=O)CC3)CC2)C1 (stereo partly drawn) [Compound 133, 5-(4-(2-(4-(((R)-3-(4-amino-3-(4-phenoxyphenyl)-1H-pyrazolo[3,4-d]pyrimidin-1-yl)piperidin-1-yl)methyl)piperidin-1-yl)ethyl)piperazin-1-yl)-2-(2,6-dioxopiperidin-3-yl)isoindoline-1,3-dione] | > 90 | 10 to 50 | 1000 to 10000 | < 1000 |
| Nc1ncnc2c1c(-c1ccc(Oc3ccccc3)cc1)nn2C1CCN(C(=O)N2CCN(CCCN3CCC(c4ccc5c(c4)C(=O)N(C4CCC(=O)NC4=O)C5=O)CC3)CC2)CC1 (stereo not shown) [Compound 123, 5-(1-(3-(4-(4-(4-amino-3-(4-phenoxyphenyl)-1H-pyrazolo[3,4-d]pyrimidin-1-yl)piperidine-1-carbonyl)piperazin-1-yl)propyl)piperidin-4-yl)-2-(2,6-dioxopiperidin-3-yl)isoindoline-1,3-dione] | > 75 | > 50 | 1000 to 10000 | 1000 to 10000 |
| Nc1ncnc2c1c(-c1ccc(Oc3ccccc3)cc1)nn2C1CCN(C(=O)N2CCN(CCN3CCC(c4ccc5c(c4)C(=O)N(C4CCC(=O)NC4=O)C5=O)CC3)CC2)CC1 (stereo not shown) [Compound 99, 5-(1-(2-(4-(4-(4-amino-3-(4-phenoxyphenyl)-1H-pyrazolo[3,4-d]pyrimidin-1-yl)piperidine-1-carbonyl)piperazin-1-yl)ethyl)piperidin-4-yl)-2-(2,6-dioxopiperidin-3-yl)isoindoline-1,3-dione] | > 90 | 10 to 50 | 1000 to 10000 | > 10000 |
| Nc1ncnc2c1c(-c1ccc(Oc3ccccc3)cc1)nn2C1CCN(C(=O)N2CCN(CCCN3CCN(c4ccc5c(c4)C(=O)N(C4CCC(=O)NC4=O)C5=O)CC3)CC2)CC1 (stereo not shown) [Compound 119, 5-(4-(3-(4-(4-(4-amino-3-(4-phenoxyphenyl)-1H-pyrazolo[3,4-d]pyrimidin-1-yl)piperidine-1-carbonyl)piperazin-1-yl)propyl)piperazin-1-yl)-2-(2,6-dioxopiperidin-3-yl)isoindoline-1,3-dione] | > 75 | > 50 | > 10000 | 1000 to 10000 |
| Nc1ncnc2c1c(-c1ccc(Oc3ccccc3)cc1)nn2C1CCN(C(=O)N2CCC(CCN3CCN(c4ccc5c(c4)CN(C4CCC(=O)NC4=O)C5=O)CC3)CC2)CC1 (stereo not shown) [Compound 94, 3-(5-(4-(2-(1-(4-(4-amino-3-(4-phenoxyphenyl)-1H-pyrazolo[3,4-d]pyrimidin-1-yl)piperidine-1-carbonyl)piperidin-4-yl)ethyl)piperazin-1-yl)-1-oxoisoindolin-2-yl)piperidine-2,6-dione] | > 90 | 10 to 50 | 1000 to 10000 | < 1000 |
| Nc1ncnc2c1c(-c1ccc(Oc3ccccc3)cc1)nn2C1CCN(C(=O)N2CCN(CCC3CCN(c4ccc5c(c4)C(=O)N(C4CCC(=O)NC4=O)C5=O)CC3)CC2)CC1 (stereo not shown) [Compound 97, 5-(4-(2-(4-(4-(4-amino-3-(4-phenoxyphenyl)-1H-pyrazolo[3,4-d]pyrimidin-1-yl)piperidine-1-carbonyl)piperazin-1-yl)ethyl)piperidin-1-yl)-2-(2,6-dioxopiperidin-3-yl)isoindoline-1,3-dione] | > 90 | 10 to 50 | 1000 to 10000 | 1000 to 10000 |
| Nc1ncnc2c1c(-c1ccc(Oc3ccccc3)cc1)nn2C1CCN(C(=O)N2CCC(CN3CCC(c4ccc5c(c4)CN(C4CCC(=O)NC4=O)C5=O)CC3)CC2)CC1 (stereo not shown) [Compound 92, 3-(5-(1-((1-(4-(4-amino-3-(4-phenoxyphenyl)-1H-pyrazolo[3,4-d]pyrimidin-1-yl)piperidine-1-carbonyl)piperidin-4-yl)methyl)piperidin-4-yl)-1-oxoisoindolin-2-yl)piperidine-2,6-dione] | > 90 | < 10 | 1000 to 10000 | < 1000 |
